Laboratory results reported in article PMC5114172 (Journal of applied toxicology : JAT, 2016).

Tested on: monocyte-depleted PBMCs
Experiment: Cell viability, trypan blue exclusion
Type: cell-based, human
Settings: for Percent Viable Cells / decrease in viability: MD-PBMCs

Q: Which results are given for `CCC[CH2][Sn][CH2]CCC` [DBT, Dibutyltin]?
A: average decrease in viability (MD-PBMC, 24 h, 5 μM DBT): 15%; Percent Viable Cells (24 h, 0.05 μM DBT): 98±2%; Percent Viable Cells (24 h, 0.1 μM DBT): 98±1%; Percent Viable Cells (24 h, 0.25 μM DBT): 97±1%; Percent Viable Cells (24 h, 0.5 μM DBT): 91±8%; Percent Viable Cells (24 h, 1 μM DBT): 92±4%; Percent Viable Cells (24 h, 2.5 μM DBT): 74±15 %; Percent Viable Cells (24 h, 5 μM DBT): 80±9 %; decrease in viability (24 h, 2.5 and 5 μM DBT): 15%; Percent Viable Cells (48 h, 0.05 μM DBT): 96±2%; Percent Viable Cells (48 h, 0.1 μM DBT): 97±1 %; Percent Viable Cells (48 h, 0.25 μM DBT): 96±2%; Percent Viable Cells (48 h, 0.5 μM DBT): 94±3%; Percent Viable Cells (48 h, 1 μM DBT): 80±11 %; Percent Viable Cells (48 h, 2.5 μM DBT): 56±20 %; decrease in viability (48 h, 2.5 μM DBT): 38%; Percent Viable Cells (48 h, 5 μM DBT): 55±10 %; decrease in viability (48 h, 5 μM DBT): 35%; Percent Viable Cells (6 day, 0.05 μM DBT): 89±8%; Percent Viable Cells (6 day, 0.1 μM DBT): 86±7%; Percent Viable Cells (6 day, 0.25 μM DBT): 81±13%; Percent Viable Cells (6 day, 0.5 μM DBT): 67±13 %; Percent Viable Cells (6 day, 1 μM DBT): 52±11 %; Percent Viable Cells (6 day, 2.5 μM DBT): 47±9 %; Percent Viable Cells (6 day, 5 μM DBT): 52±8 %
